Results from patent publication US8299077B2 (Roche Palo Alto LLC, priority 2009, dated 2012).

System: not given
Test: not given
Details: not given

Row | SMILES | melting point
1 | Cn1cc(-c2cccc(-n3ncc4cc(C(C)(C)C)cc(F)c4c3=O)c2CO)cc(Nc2ccc(C(C)(C)C(=O)O)cn2)c1=O [Example 18, 2-(6-{5-[3-(6-tert-butyl-8-fluoro-1-oxo-1H-phthalazin-2-yl)-2-hydroxymethyl-phenyl]-1-methyl-2-oxo-1,2-dihydro-pyridin-3-ylamino}-pyridin-3-yl)-2-methyl-propionic acid] | 218 to 220 °C
2 | CN1CC(Oc2ccc(Nc3cc(-c4cccc(-n5ncc6cc(C(C)(C)C)cc(F)c6c5=O)c4CO)cn(C)c3=O)nc2)C1 [Example 27, 6-tert-Butyl-8-fluoro-2-(2-hydroxymethyl-3-{1-methyl-5-[5-(1-methyl-azetidin-3-yloxy)-pyridin-2-ylamino]-6-oxo-1,6-dihydro-pyridin-3-yl}-phenyl)-2H-phthalazin-1-one] | > 300 °C
3 | CCNCc1ccc(Nc2cc(-c3cccc(-n4ncc5cc(C(C)(C)C)cc(F)c5c4=O)c3CO)cn(C)c2=O)nc1 [Example 29, 6-tert-Butyl-2-{3-[5-(5-ethylaminomethyl-pyridin-2-ylamino)-1-methyl-6-oxo-1,6-dihydro-pyridin-3-yl]-2-hydroxymethyl-phenyl}-8-fluoro-2H-phthalazin-1-one] | 265 to 268 °C
4 | Cn1cc(-c2cccc(-n3ncc4cc(C(C)(C)C)cc(F)c4c3=O)c2CO)cc(Nc2ccc(C(C)(C)O)cn2)c1=O [Example 37, 6-tert-Butyl-8-fluoro-2-(2-hydroxymethyl-3-{5-[5-(1-hydroxy-1-methyl-ethyl)-pyridin-2-ylamino]-1-methyl-6-oxo-1,6-dihydro-pyridin-3-yl}-phenyl)-2H-phthalazin-1-one] | 200 to 205 °C
5 | CCNC(C)(C)c1ccc(Nc2cc(-c3cccc(-n4ncc5cc(C(C)(C)C)cc(F)c5c4=O)c3CO)cn(C)c2=O)nc1 [Example 260, 6-tert-Butyl-2-(3-{5-[5-(1-ethylamino-1-methyl-ethyl)-pyridin-2-ylamino]-1-methyl-6-oxo-1,6-dihydro-pyridin-3-yl}-2-hydroxymethyl-phenyl)-8-fluoro-2H-phthalazin-1-one] | 195 to 200 °C
6 | CN1CCN(Cc2ccc(Nc3cc(-c4cccc(-n5ncc6cc(C(C)(C)C)cc(F)c6c5=O)c4CO)cn(C)c3=O)nc2)CC1 [Example I-15, 6-tert-butyl-8-fluoro-2-(2-hydroxymethyl-3-{1-methyl-5-[5-(4-methyl-piperazin-1-ylmethyl)-pyridin-2-ylamino]-6-oxo-1,6-dihydro-pyridin-3-yl}-phenyl)-2H-phthalazin-1-one] | 235 to 238 °C

System: B cell receptor-mediated activation of B cells in human blood (CD69 expression)
Test: Inhibition of B cell activation in whole blood measured by CD69 expression
Type: cell-based
Details: anti-IgM stimulation, 20 h, 50% decrease of CD69-positive cells that are also CD20-positive
Summary of the method: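 Healthy-donor human whole blood (heparin) preincubated with compound (nine-point, three-fold dilutions) for 30 min at 37 °C, then stimulated with goat F(ab′)2 anti-human IgM (50 μg/ml final) for 20 h. CD69-positive B cells (CD20 gating) measured by flow cytometry as percent positive; IC50 from dose-response fit.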

Row | SMILES | IC50
7 | CN1CCN(Cc2ccc(Nc3cc(-c4cccc(-n5ncc6cc(C(C)(C)C)cc(F)c6c5=O)c4CO)cn(C)c3=O)nc2)CC1 [Example I-15, 6-tert-butyl-8-fluoro-2-(2-hydroxymethyl-3-{1-methyl-5-[5-(4-methyl-piperazin-1-ylmethyl)-pyridin-2-ylamino]-6-oxo-1,6-dihydro-pyridin-3-yl}-phenyl)-2H-phthalazin-1-one] | 7 nM
8 | CC(C)NCc1ccc(Nc2cc(-c3cccc(-n4ccc5cc(C6CC6)cc(F)c5c4=O)c3CO)cn(C)c2=O)nc1 [Example I-78, 6-Cyclopropyl-8-fluoro-2-(2-hydroxymethyl-3-{5-[5-(isopropylamino-methyl)-pyridin-2-ylamino]-1-methyl-6-oxo-1,6-dihydro-pyridin-3-yl}-phenyl)-2H-isoquinolin-1-one] | 20 nM
9 | Cn1cc(-c2cccc(-n3ccc4cc(C5CC5)cc(F)c4c3=O)c2CO)cc(Nc2ccc(OCCO)cn2)c1=O [Example I-79, 6-Cyclopropyl-8-fluoro-2-(3-{5-[5-(2-hydroxy-ethoxy)-pyridin-2-ylamino]-1-methyl-6-oxo-1,6-dihydro-pyridin-3-yl}-2-hydroxymethyl-phenyl)-2H-isoquinolin-1-one] | 93 nM
10 | Cn1cc(-c2cccc(-n3ccc4cc(C(C)(C)O)cc(F)c4c3=O)c2CO)nc(Nc2cnn(CC(F)F)c2)c1=O [Example I-80, 2-(3-{6-[1-(2,2-Difluoro-ethyl)-1H-pyrazol-4-ylamino]-4-methyl-5-oxo-4,5-dihydro-pyrazin-2-yl}-2-hydroxymethyl-phenyl)-8-fluoro-6-(1-hydroxy-1-methyl-ethyl)-2H-isoquinolin-1-one] | 31 nM
11 | CCn1cc(Nc2nc(-c3cccc(-n4ccc5cc(C(C)(C)O)cc(F)c5c4=O)c3CO)cn(C)c2=O)cn1 [Example I-81, 2-{3-[6-(1-Ethyl-1H-pyrazol-4-ylamino)-4-methyl-5-oxo-4,5-dihydro-pyrazin-2-yl]-2-hydroxymethyl-phenyl}-8-fluoro-6-(1-hydroxy-1-methyl-ethyl)-2H-isoquinolin-1-one] | 13 nM
12 | CC(O)Cn1cc(Nc2nc(-c3cccc(-n4ccc5cc(C6CC6)cc(F)c5c4=O)c3CO)cn(C)c2=O)cn1 (stereo not drawn) [Example I-82, 6-Cyclopropyl-8-fluoro-2-(2-hydroxymethyl-3-{6-[1-(2-hydroxy-propyl)-1H-pyrazol-4-ylamino]-4-methyl-5-oxo-4,5-dihydro-pyrazin-2-yl}-phenyl)-2H-isoquinolin-1-one] | 57 nM
13 | CC(O)Cn1cc(Nc2nc(-c3cccc(-n4ncc5cc(C(C)(C)C)cc(F)c5c4=O)c3CO)cn(C)c2=O)cn1 (stereo not drawn) [Example I-83, 6-tert-Butyl-8-fluoro-2-(2-hydroxymethyl-3-{6-[1-(2-hydroxy-propyl)-1H-pyrazol-4-ylamino]-4-methyl-5-oxo-4,5-dihydro-pyrazin-2-yl}-phenyl)-2H-phthalazin-1-one] | 10 nM
14 | Cn1cc(-c2cccc(-n3ncc4cc(C(C)(C)C)cc(F)c4c3=O)c2CO)nc(Nc2cnn(CC(F)F)c2)c1=O [Example I-84, 6-tert-Butyl-2-(3-{6-[1-(2,2-difluoro-ethyl)-1H-pyrazol-4-ylamino]-4-methyl-5-oxo-4,5-dihydro-pyrazin-2-yl}-2-hydroxymethyl-phenyl)-8-fluoro-2H-phthalazin-1-one] | 20 nM
15 | Cn1cc(-c2cccc(-n3ncc4cc(C(C)(C)C)cc(F)c4c3=O)c2CO)cc(Nc2ccc(CN3CCC(N)C3)cn2)c1=O (stereo not drawn) [Example I-86, 2-(3-{5-[5-(3-Amino-pyrrolidin-1-ylmethyl)-pyridin-2-ylamino]-1-methyl-6-oxo-1,6-dihydro-pyridin-3-yl}-2-hydroxymethyl-phenyl)-6-tert-butyl-8-fluoro-2H-phthalazin-1-one] | 101 nM
16 | Cn1cc(-c2cccc(-n3ncc4cc(C(C)(C)C)cc(F)c4c3=O)c2CO)cc(Nc2ccc(N3C[C@H]4CC[C@@H](C3)N4)cn2)c1=O [Example I-87, 6-tert-Butyl-2-(3-{5-[(1S,5R)-5-(3,8-diaza-bicyclo[3.2.1]oct-3-yl)-pyridin-2-ylamino]-1-methyl-6-oxo-1,6-dihydro-pyridin-3-yl}-2-hydroxymethyl-phenyl)-8-fluoro-2H-phthalazin-1-one] | 24 nM
17 | CNCCOc1ccc(Nc2cc(-c3cccc(-n4ncc5cc(C(C)(C)C)cc(F)c5c4=O)c3CO)cn(C)c2=O)nc1 [Example I-88, 6-tert-Butyl-8-fluoro-2-(2-hydroxymethyl-3-{1-methyl-5-[5-(2-methylamino-ethoxy)-pyridin-2-ylamino]-6-oxo-1,6-dihydro-pyridin-3-yl}-phenyl)-2H-phthalazin-1-one] | 9 nM
18 | CN1CCN(C)C(c2ccc(Nc3nc(-c4cccc(-n5ncc6cc(C(C)(C)C)cc(F)c6c5=O)c4CO)cn(C)c3=O)cc2)C1=O (stereo not drawn) [Example I-89, 6-tert-Butyl-2-(3-{6-[4-(1,4-dimethyl-3-oxo-piperazin-2-yl)-phenylamino]-4-methyl-5-oxo-4,5-dihydro-pyrazin-2-yl}-2-hydroxymethyl-phenyl)-8-fluoro-2H-phthalazin-1-one] | 12 nM
